Data on 5 molecules can be found in patent US6365590B1, “Compounds, compositions and methods for treating erectile dysfunction” (Saint Louis University, priority 1998, dated 2002).

One data set deals with sperm. The settings on record: cited from earlier work.
Data set [1] is described as follows: pH of a 10 mM aqueous solution of the compound. The settings on record: 22° C. The class given is physicochemical.
For data set [2] the following is noted: concentrations up to 20%; cited from earlier work.

Counter-ions that a name gives are not always drawn.

Regarding `COc1cc2nc(N3CCN(C(=O)c4ccco4)CC3)nc(N)c2cc1OC` [prazosin hydrochloride], the “effect on the viability of sperm” value with sperm was “no effect”. With `CCCCCC(O)C=CC1C(O)CC(=O)C1CCCCCCC(=O)O.COc1cc2nc(N3CCN(C(=O)c4ccco4)CC3)nc(N)c2cc1OC` [prazosin alprostadilate], the “pH of a 10 mM aqueous solution” value in data set [1] is recorded as 6.32-6.38. With `COc1ccc(Cc2nccc3cc(OC)c(OC)cc23)cc1OC` [papaverine], in data set [2], the “effectiveness as a topical agent in erectile dysfunction” value is recorded as “not sufficiently effective for clinical use”.

Take `CCCCC[C@H](O)/C=C/[C@H]1[C@H](O)CC(=O)[C@@H]1CCCCCCC(=O)O` [alprostadil]: the “effect on the viability of sperm” value with sperm is “no effect”.

Regarding `CCCCC[C@H](O)/C=C/[C@H]1[C@H](O)CC(=O)[C@@H]1CCCCCCC(=O)O.CCN(CC)CC(=O)Nc1c(C)cccc1C` [lidocaine alprostadilate], in data set [1], the “pH of a 10 mM aqueous solution” value is given as 6.29-6.36.
